Assay results: US20250140406A1, “CLASSIFYING TUMORS AND PREDICTING RESPONSIVENESS” (Oncocyte Corporation, priority 2022, published 2025)

Assays:
[1] = test system: cancer cell lines, DetermaIO classes; assay: Association of PRISM compound sensitivity with DetermaIO (DTIO) cell line classes; type: cell-based
[2] = test system: cancer cell lines classified IM, MSL, M; assay: PRISM screen compound sensitivity correlated with IM, MSL and M subtype of cell lines (101 gene signature); type: cell-based; conditions: for IM Corr test: correlation of PRISM compound sensitivity with IM subtype correlation; for M Corr test: correlation of PRISM compound sensitivity with M subtype correlation; for MSL Corr test: correlation of PRISM compound sensitivity with MSL subtype correlation; for TNBCType train: 101 gene signature
[3] = correlation of PRISM compound sensitivity with DTIO; test cell set
[4] = correlation of PRISM compound sensitivity with DTIO; training cell set
[5] = subtype (IM, MSL or M) with which PRISM compound sensitivity is negatively correlated, training cell set
[6] = correlation of PRISM compound sensitivity with DTIO (DetermaIO); test cell set (188 cell lines)
[7] = correlation of PRISM compound sensitivity with DTIO (DetermaIO); training cell set (371 cell lines)
[8] = correlation of PRISM compound sensitivity with DTIO; test cell set (188 cell lines)
[9] = correlation of PRISM compound sensitivity with DTIO; training cell set (371 cell lines)

Row | SMILES | DTIO Corr test [1, 3] | DTIO Corr train [1, 4] | IM Corr test ([2]; test cell set (188 cell lines)) | M Corr test ([2]; test cell set (188 cell lines)) | MSL Corr test ([2]; test cell set (188 cell lines)) | also measured
1 | C=C(C)CN1CC[C@]23c4c5ccc(O)c4O[C@H]2c2[nH]c4ccccc4c2C[C@@]3(O)C1C5.Cl.O [SDM25N] | −0.165 | −0.12 | −0.1682 | 0.08807 | −0.06407 | 
2 | COc1cc2ncnc(Sc3nnc(C)s3)c2cc1OC [SKLB1002] | 0.03788 | 0.02384 |  |  |  | IM Corr test ([2]; test cell set): 0.0147; M Corr test ([2]; test cell set): −0.00342; MSL Corr test ([2]; test cell set): −0.05424; TNBCType train [2, 5]: MSL
3 | Cl.NC1CCN(c2cccc(Cl)n2)CC1 [SR-57227A] | 0.01635 | −0.1048 | −0.02879 | −0.08168 | −0.00449 | 
4 | Cc1nc(-c2cccnc2)sc1C(=O)Nc1ccccc1-c1cn2c(CN3CCOCC3)csc2n1 [SRT2104] | −0.05596 | −0.07665 |  |  |  | IM Corr test ([2]; test cell set): −0.05657; M Corr test ([2]; test cell set): 0.06965; MSL Corr test ([2]; test cell set): −0.08685; TNBCType train [2, 5]: MSL
5 | C[C@H](C[C@H](N)C(=O)O)C(=O)O [SYM-2081] |  |  | −0.08842 | 0.01603 | 0.05746 | DTIO Corr test [1, 6]: −0.1311; DTIO Corr train [1, 7]: −0.0674
6 | CC(C)(O)CC(=O)NCCn1ccc2ncnc(Nc3ccc(Oc4cccc(C(F)(F)F)c4)c(Cl)c3)c21 [TAK-285] |  |  | −0.1598 | 0.2221 | 0.1785 | DTIO Corr test [1, 6]: −0.06872; DTIO Corr train [1, 7]: −0.07158; DTIO Corr test ([1]; correlation of compound sensitivity with DTIO; test set): −0.06872; DTIO Corr train ([1]; correlation of compound sensitivity with DTIO; training set): −0.07158
7 | N#Cc1c(Oc2ccc(F)c(NC(=O)Cc3cccc(C(F)(F)F)c3)c2)ccc2nc(NC(=O)C3CC3)sc12 [TAK-632] | 0.2089 | 0.08489 |  |  |  | DTIO Corr test ([1]; correlation of compound sensitivity with DetermaIO (DTIO), test set): 0.2089; DTIO Corr train ([1]; correlation of compound sensitivity with DetermaIO (DTIO), training set): 0.08489; DTIO Corr test ([1]; correlation of compound sensitivity with DetermaIO (DTIO); test set): 0.2089; DTIO Corr train ([1]; correlation of compound sensitivity with DetermaIO (DTIO); training set): 0.08489; IM Corr test ([2]; test cell set): 0.3042; M Corr test ([2]; test cell set): −0.2709; MSL Corr test ([2]; test cell set): 0.04709
8 | Cc1cc(OCCCS(C)(=O)=O)cc(C)c1-c1cccc(COc2ccc3c(c2)OC[C@H]3CC(=O)O)c1 [TAK-875] |  |  | 0.00946 | −0.00346 | −0.00217 | DTIO Corr test [1, 6]: −0.03291; DTIO Corr train [1, 7]: 0.03182; TNBCType train ([2]; subtype (IM, MSL or M) assigned to the compound by negative correlation of PRISM sensitivity with subtype, training cell set (371 cell lines)): MSL
9 | CCN1/C(=C/C(C)=O)Sc2ccc(OC)cc21 [TG-003] |  |  | −0.1049 | 0.03396 | −0.1032 | DTIO Corr test [1, 8]: −0.05387; DTIO Corr train [1, 9]: −0.04255; TNBCType train ([2]; subtype (IM, MSL or M) the PRISM compound sensitivity is associated with, training cell set (371 cell lines)): MSL
10 | Cc1cc(-c2cc(O)ccc2Cl)cc2nnc(Nc3ccc(OCCN4CCCC4)cc3)nc12 [TG-100572] | 0.03221 | 0.09048 | 0.01392 | −0.05751 | −0.04088 | TNBCType train ([2]; subtype (IM, MSL or M) with which compound sensitivity is negatively correlated, training cell set (371 cell lines)): MSL
11 | Nc1cccc(-c2cc3c(Oc4cccc(O)c4)ncnc3[nH]2)c1 [TWS-119] |  |  | −0.02666 | 0.00573 | 0.1335 | DTIO Corr test [1, 8]: −0.03964; DTIO Corr train [1, 9]: −0.1606
12 | CC(C)C(=O)c1ccc(O)c(O)c1 [U-0521] | −0.01537 | −0.1115 | −0.0012 | 0.02749 | 0.06256 | 
13 | c1ccc(C(NCc2cccnc2)(c2ccccc2)c2ccccc2)cc1 [UCL-2077] | −0.07511 | −0.2006 |  |  |  | IM Corr test ([2]; test cell set): −0.1051; M Corr test ([2]; test cell set): 0.08781; MSL Corr test ([2]; test cell set): 0.1128
14 | CCCN(CCC)[C@@H]1CCc2c(OC)cccc2[C@@H]1C [UH-232-(+)] |  |  | −0.1006 | 0.08495 | 0.1169 | DTIO Corr test [1, 6]: −0.1146; DTIO Corr train [1, 7]: −0.08225
